Assay results published in patent US12071434B2, “Heterocyclic compound” (Takeda Pharmaceutical Company Limited, priority 2018, dated 2024).

Target: T1, human orexin type 2 receptor (Homo sapiens, UniProt O43614)
T1 construct: expressed in transfected cells
T1 sequence (O43614 1-444): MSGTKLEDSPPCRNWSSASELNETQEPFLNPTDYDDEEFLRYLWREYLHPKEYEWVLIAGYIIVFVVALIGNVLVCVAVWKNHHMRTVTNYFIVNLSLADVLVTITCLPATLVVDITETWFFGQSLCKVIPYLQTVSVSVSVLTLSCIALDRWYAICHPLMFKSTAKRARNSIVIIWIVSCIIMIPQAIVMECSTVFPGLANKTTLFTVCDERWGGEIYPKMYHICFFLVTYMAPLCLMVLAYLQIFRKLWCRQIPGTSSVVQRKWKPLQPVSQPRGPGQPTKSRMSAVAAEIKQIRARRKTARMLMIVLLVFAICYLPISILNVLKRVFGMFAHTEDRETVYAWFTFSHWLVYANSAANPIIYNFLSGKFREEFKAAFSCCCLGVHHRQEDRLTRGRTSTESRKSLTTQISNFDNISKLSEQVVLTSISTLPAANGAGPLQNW
Assay: Measurement of orexin type 2 receptor agonist activity (calcium fluorescence, Fluo-4 AM, FDSS) in CHO cells forcibly expressing human OX2 receptor
Assay type: cell-based
Settings: test compound 3 μM, DMSO = 0%, orexin A (human) 10 nM = 100%
From the text: To obtain a cell clone stably expressing human orexin type 2 receptor, human orexin type 2 receptor cDNA was inserted into pcDNA3.1(+) plasmid vector (Invitrogen), and a plasmid DNA for expression of human orexin type 2 receptor (pcDNA3.1(+)/hOX2R) was cloned. The plasmid DNA was introduced into CHO-dhfr cell by an electroporation method, and human orexin type 2 receptor expressing clone cells were obtained by limiting dilution method by using G418 drug resistance as a selection marker.
CHO cells forcibly expressing human OX2 receptor were seeded in each well of 384 well black transparent bottom plate (BD Falcon) at 7,500 cells/well, and cultured for one day in a 5% CO2 incubator at 37° C. After removal of the medium in the cell plate, assay buffer A containing a calcium indicator (HBSS (Thermo Fisher Scientific), 20 mM HEPES (Thermo Fisher Scientific), 0.1% BSA (Sigma-Aldrich), 2.5 μg/mL Fluo-4 AM (DOJINDO Chemical), 0.08% Pluronic F127 (DOJINDO Chemical), 1.25 mM probenecid (DOJINDO Chemical)) was added at 30 μL/well. The plate was stood for 30 min in a 5% CO2 incubator at 37° C., and further stood at room temperature for 30 min. A test compound prepared by diluting with assay buffer B (HBSS, 20 mM HEPES, 0.1% BSA) was added at 10 μL/well, and the fluorescence value was measured by FDSSpCELL (Hamamatsu Photonics K.K.) every one sec for 1 min, and thereafter every two sec for 1 min 40 sec. The activity (%) of the test compound was calculated assuming that variation in the fluorescence value when DMSO was added instead of the test compound was 0%, and variation in the fluorescence value when orexin A (human) (PEPTIDE INSTITUTE, INC.) was added at the final concentration of 10 nM was 100%.

0X2R agonist activity (3 μM, %) [%]	SMILES
103	Cc1cccc(-c2cccc(C[C@@H]3c4c(ncn(C(C)C)c4=O)CC[C@@H]3NS(C)(=O)=O)c2)c1 (racemic) [Example 106, rac-N-[(5R,6S)-5-[(3′-methyl[1,1′-biphenyl]-3-yl)methyl]-4-oxo-3-(propan-2-yl)-3,4,5,6,7,8-hexahydroquinazolin-6-yl]methanesulfonamide]
91	CC(C)n1cnc2c(c1=O)C(Cc1cccc(-c3ccccc3)c1)C(NS(C)(=O)=O)C(F)C2 (racemic) [Example 173, rac-N-[(5R,6R)-5-[([1,1′-biphenyl]-3-yl)methyl]-7-fluoro-4-oxo-3-(propan-2-yl)-3,4,5,6,7,8-hexahydroquinazolin-6-yl]methanesulfonamide]
105	CCn1ccc2c(c1=O)[C@@H](Cc1cccc(-c3cc(F)cc(C)c3F)c1)[C@@H](NS(C)(=O)=O)CC2 (racemic) [Example 127, rac-N-{(7S,8R)-8-[(2′,5′-difluoro-3′-methyl[1,1′-biphenyl]-3-yl)methyl]-2-ethyl-1-oxo-1,2,5,6,7,8-hexahydroisoquinolin-7-yl}methanesulfonamide]
93	CC(C)c1ccc2n(c1=O)[C@@H](Cc1cccc(-c3cccc(F)c3)c1F)[C@@H](NC(=O)C(=O)N(C)C)CC2 (racemic) [Example 40, rac-N~2~-[(3S,4S)-4-[(2,3′-difluoro[1,1′-biphenyl]-3-yl)methyl]-6-oxo-7-(propan-2-yl)-1,3,4,6-tetrahydro-2H-quinolizin-3-yl]-N~1~,N~1~-dimethylethanediamide]
96	CC(C)n1cnc2c(c1=O)[C@@H](Cc1cccc(-c3ccccc3)c1F)[C@@H](NS(=O)(=O)C1CC1)[C@H](F)C2 (relative stereo) [Example 206, rel-N-[(5R,6R,7R)-7-fluoro-5-[(2-fluoro[1,1′-biphenyl]-3-yl)methyl]-4-oxo-3-(propan-2-yl)-3,4,5,6,7,8-hexahydroquinazolin-6-yl]cyclopropanesulfonamide]
98	CCc1ccc2n(c1=O)C(Cc1cccc(-c3cc(F)cc(F)c3)c1)C(NS(C)(=O)=O)CC2 (racemic) [Example 101, rac-N-{(3S,4S)-4-[(3′,5′-difluoro[1,1′-biphenyl]-3-yl)methyl]-7-ethyl-6-oxo-1,3,4,6-tetrahydro-2H-quinozilin-3-yl}methanesulfonamide]
100	Cc1cccc(-c2cccc(C[C@@H]3c4c(ncn(C(C)C)c4=O)CC[C@@H]3NS(C)(=O)=O)c2)c1F (racemic) [Example 108, rac-N-[(5R,6S)-5-[(2′-fluoro-3′-methyl[1,1′-biphenyl]-3-yl)methyl]-4-oxo-3-(propan-2-yl)-3,4,5,6,7,8-hexahydroquinazolin-6-yl]methanesulfonamide]
99	[2H]C([2H])([2H])C([2H])(n1cnc2c(c1=O)C(Cc1cccc(-c3ccccc3)c1F)C(NS(=O)(=O)C1CC1)CC2)C([2H])([2H])[2H] [Example 212, rel-N-{(5R,6S)-5-[(2-fluoro[1,1′-biphenyl]-3-yl)methyl]-4-oxo-3-[(~2~H_7_)propan-2-yl]-3,4,5,6,7,8-hexahydroquinazolin-6-yl}cyclopropanesulfonamide]
97	CC(C)n1cnc2c(c1=O)[C@@H](Cc1cccc(-c3cccc(F)c3F)c1)[C@@H](NS(=O)(=O)C1CC1)CC2 [Example 193, N-[(5R,6S)-5-[(2′,3′-difluoro[1,1′-biphenyl]-3-yl)methyl]-4-oxo-3-(propan-2-yl)-3,4,5,6,7,8-hexahydroquinazolin-6-yl]cyclopropanesulfonamide]
106	CS(=O)(=O)N[C@H]1CCc2ccc(C3CC3)c(=O)n2[C@H]1Cc1cccc(-c2ccccc2)c1 (racemic) [Example 22, rac-N-{(3S,4S)-4-[([1,1′-biphenyl]-3-yl)methyl]-7-cyclopropyl-6-oxo-1,3,4,6-tetrahydro-2H-quinolizin-3-yl}methanesulfonamide]
97	CS(=O)(=O)N[C@H]1CCc2ccc(C#N)c(=O)n2[C@H]1Cc1cccc(-c2ccccc2)c1 (racemic) [Example 28, rac-N-{(3S,4S)-4-[([1,1′-biphenyl]-3-yl)methyl]-7-cyano-6-oxo-1,3,4,6-tetrahydro-2H-quinolizin-3-yl}methanesulfonamide]
99	CC(C)N1CNC2=C(C1=O)[C@@H](Cc1csc(-c3ccccc3F)n1)[C@@H](NS(=O)(=O)C1(F)CC1)CC2 (relative stereo) [Example 157, rac-1-fluoro-N-[(5R,6S)-5-{[2-(2-fluorophenyl)-1,3-thiazol-4-yl]methyl}-4-oxo-3-(propan-2-yl)-1,2,3,4,5,6,7,8-octahydroquinazolin-6-yl]cyclopropane-1-sulfonamide]
98	CCn1ccc2c(c1=O)[C@@H](Cc1cccc(-c3cccn(C)c3=O)c1)[C@@H](NS(C)(=O)=O)CC2 (racemic) [Example 129, rac-N-[(7S,8R)-2-ethyl-8-{[3-(1-methyl-2-oxo-1,2-dihydropyridin-3-yl)phenyl]methyl}-1-oxo-1,2,5,6,7,8-hexahydroisoquinolin-7-yl]methanesulfonamide]
71	Cc1nn(C)c(=O)c2c1CC[C@H](NS(C)(=O)=O)[C@@H]2Cc1cccc(-c2ccccc2)c1 (racemic) [Example 96, rac-N-{(5R,6S)-5-[([1,1′-biphenyl]-3-yl)methyl]-1,3-dimethyl-4-oxo-3,4,5,6,7,8-hexahydrophthalazin-6-yl}methanesulfonamide]
91	CCn1cc2n(c1=O)[C@@H](Cc1cccc(-c3ccccc3)c1F)[C@@H](NS(C)(=O)=O)CC2 (racemic) [Example 204, rac-N-{(5S,6S)-2-ethyl-5-[(2-fluoro[1,1′-biphenyl]-3-yl)methyl]-3-oxo-2,3,5,6,7,8-hexahydroimidazo[1,5-a]pyridin-6-yl}methanesulfonamide]
102	CCn1ccc2c(c1=O)[C@@H](Cc1cccc(-c3cccc(F)c3)c1)[C@@H](NS(C)(=O)=O)CC2 (racemic) [Example 79, rac-N-{(7S,8R)-2-ethyl-8-[(3′-fluoro[1,1′-biphenyl]-3-yl)methyl]-1-oxo-1,2,5,6,7,8-hexahydroisoquinolin-7-yl}methanesulfonamide]
92	COC1(C(=O)N[C@H]2CCc3ncn(C(C)C)c(=O)c3[C@H]2Cc2cccc(-c3ccccc3)c2)CC1 (racemic) [Example 63, rac-N-[(5R,6S)-5-[([1,1′-biphenyl]-3-yl)methyl]-4-oxo-3-(propan-2-yl)-3,4,5,6,7,8-hexahydroquinazolin-6-yl]-1-methoxycyclopropane-1-carboxamide]
97	Cc1nc2c(c(=O)n1C(C)C)[C@@H](Cc1cccc(-c3ccccc3)c1)[C@@H](NS(C)(=O)=O)CC2 (racemic) [Example 70, rac-N-{(5R,6S)-5-[([1,1′-biphenyl]-3-yl)methyl]-2-methyl-4-oxo-3-(propan-2-yl)-3,4,5,6,7,8-hexahydroquinazolin-6-yl}methanesulfonamide]
107	CC(C)n1cnc2c(c1=O)[C@@H](Cc1cccc(-c3cccc(F)c3F)c1F)[C@@H](NS(C)(=O)=O)CC2 (relative stereo) [Example 151, rel-N-{(5R,6S)-4-oxo-3-(propan-2-yl)-5-[(2,2′,3′-trifluoro[1,1′-biphenyl]-3-yl)methyl]-3,4,5,6,7,8-hexahydroquinazolin-6-yl}methanesulfonamide]
94	CC(C)n1cnc2c(c1=O)[C@@H](Cc1cccc(-c3cc(F)cc(F)c3)c1)[C@@H](NS(=O)(=O)C1(F)CC1)CC2 (relative stereo) [Example 187, rel-N-[(5R,6S)-5-[(3′,5′-difluoro[1,1′-biphenyl]-3-yl)methyl]-4-oxo-3-(propan-2-yl)-3,4,5,6,7,8-hexahydroquinazolin-6-yl]-1-fluorocyclopropane-1-sulfonamide]
93	CC(C)c1nn(C)c2c(c1=O)[C@@H](Cc1csc(-c3ccccc3)n1)[C@@H](NS(C)(=O)=O)C[C@H]2F (racemic) [Example 207, rac-N-[(5R,6S,8R)-8-fluoro-1-methyl-4-oxo-5-[(2-phenyl-1,3-thiazol-4-yl)methyl]-3-(propan-2-yl)-1,4,5,6,7,8-hexahydrocinnolin-6-yl]methanesulfonamide]
